Test results: patent US9333265B2, “Organic-inorganic hybrid composite of polymerized nitroxide compound and inorganic particles” (UNIVERSITY OF TSUKUBA, priority 2012, dated 2016)

What was measured:
[1] = Blood uptake suppression after intraperitoneal administration (ESR signal in blood); format: in vivo
Source text: Normally, low-molecular-weight compounds are taken up into the blood after intraperitoneal administration, and are at risk of dispersing throughout the body.

[2] = high-dosage administration; cited from earlier work

CC1(C)CCCC(C)(C)N1[O] [TEMPO]
presence in blood after intraperitoneal administration (ESR signal) [1]: present in blood for an hour or more | side-effects [2]: reduced blood pressure and inhibition of the mitochondrial energy-transfer system
